Laboratory results from patent US20020042393A1, “Excipient” (priority 1998, published 2002).

How the values were obtained:
[1] = Average particle size (sieving, 50% cumulative weight); format: physicochemical; details: excipient powder
Method: Five grams of trehalose was sifted through screens having screen openings of 500 μm, 300 μm and 250 μm, respectively, and then sifted with Air Jet Sieve by using screens having screen openings of 150 μm, 75 μm, 45 μm, 38 μm and 32 μm, respectively. The oversize particle weight percentage [%] was calculated for each screen, and the average particle size is expressed as a particle size corresponding to a cumulative weight percentage of 50%.

[2] = Apparent specific volume; format: physicochemical; details: excipient powder
Description: The whole of 10 g of trehalose powder was gently poured into a 100-ml measuring cylinder without making an impact (in this case, a cylinder having an outside diameter smaller than the inside diameter of the measuring cylinder was placed in the measuring cylinder, and it was slowly lifted after pouring the trehalose), and the apparent specific volume was expressed as a value obtained by dividing the read volume by the weight of the trehalose.

[3] = Wet granulation of phenacetin mixture with HPC binder solution: granule size and yield
[4] = Tablet hardness (Schleuniger hardness meter); format: physicochemical; details: for Tablet hardness at a compression pressure of 1000 kg/cm^2: phenacetin granules; for Tablet hardness: listed as C
[5] = Whiteness of powder (color analyzer); format: physicochemical; details: excipient powder
Method: (§1) For powder of trehalose or a pharmaceutical composition containing trehalose, values of L, a and b were measured with a color analyzer (TC-1800MKII, mfd. by Tokyo Denshoku Co., Ltd.), and the whiteness of the trehalose or pharmaceutical composition was calculated by the following equation: […]

[6] = Proportion of particles of 75 μm or more (Air Jet Sieve); format: physicochemical; details: excipient powder
Method: Five grams of trehalose was weighed onto a screen having a screen opening of 75 μm, and sifted with Air Jet Sieve (Model 200LS, mfd. by ALPINE) for 5 minutes, and the weight percentage of the weight of particles remaining on the screen based on the total weight of particles was calculated as the proportion of particles of 75 μm or more.

[7] = Dissolution test (13th revised Japanese Pharmacopoeia) of phenacetin granules; format: physicochemical
Method: The wet granules obtained in Example 6 were subjected to a dissolution test according to the dissolution test prescribed in the 13th revised Japanese Pharmacopoeia. The first liquid listed in the Japanese Pharmacopoeia was used as a test liquid, and the drug dissolution rate after 5 minutes was measured. The dissolution rate was calculated by taking the total amount of the drug contained in the granules as 100%. […] In the case of the trehaloses J and K, the dissolution rate after 5 minutes was as very high as 80%.
The granules prepared from each of lactose and Mannit P in Comparative Example 4 were subjected to a dissolution test according to the dissolution test prescribed in the 13th revised Japanese Pharmacopoeia. The first liquid listed in the Japanese Pharmacopoeia was used as a test liquid, and the drug dissolution rate after 5 minutes was measured. The drug dissolution rate was calculated by taking the total amount of the drug contained in the granules as 100%. […] In the case of lactose and Mannit P, the dissolution rate after 5 minutes was lower than in the case of trehaloses J and K.

[8] = Angle of repose (Sugiwara's instrument); format: physicochemical; details: excipient powder
Description: Measured by means of a Sugiwara's instrument for measuring angle of repose (Yakuzaigaku 27, p. 260, 1965).

[9] = Water content (Karl Fisher) of tablets before and after storage; format: physicochemical; details: tablets compressed at 500 kg/cm^2; 0 day; listed as C
Method: Determined as a value obtained by measuring about 0.1 g of trehalose and determining its water content by the Karl Fisher method.
One hundred grams of commercial “Trehaose” (available from Hayashibara Biochemical Laboratories, Inc.) was dissolved in water to a concentration of about 35 wt %, and the resulting solution was concentrated under reduced pressure with heating at 60° C. so as to have a concentration of about 75 wt %, and allowed to stand at room temperature to precipitate crystals, which were washed with 50 ml of water. Glucose was removed by carrying out the above purification procedure once or twice, to increase the trehalose purity. Trehalose A was obtained by carrying out the purification procedure twice to obtain crystals, drying the crystals, grinding the dried crystals with a bantam mill (number of revolutions 15,000 rpm, feed rate 5 kg/hr, and screen opening 2.0 mmφ), and then sifting the ground crystals through a […]. Trehalose B was obtained by carrying out the purification procedure once to obtain crystals, drying the crystals, grinding the dried crystals with a bantam mill (number of revolutions 10,000 rpm, feed rate 5 kg/hr, and screen opening 2.00 mmφ), and then sifting the ground crystals through a 350-μm screen. Trehalose C was obtained by carrying out the purification procedure once to obtain crystals, drying the crystals, grinding the dried crystals with a bantam mill (number of revolutions 8,000 rpm, feed rate 5 kg/hr, and screen opening 2.0 mmφ), and then sifting the ground crystals through a 350-μm screen. […] Each of trehaloses A to C was compressed into tablets at a compression pressure of 500 kg/cm^2, and the tablet hardness immediately after the compression and the tablet hardness after standing for 3 days in an atmosphere of 40° C. and 75% RH after the compression were compared.
“Trehaose” (available from Hayashibara Bioscience Laboratories Co., Ltd.) was purified once by the method described in Example 1 to obtain crystals, which were dried, ground with a bantam mill (number of revolutions 12,000 rpm, feed rate 5 kg/hr, and screen opening 2.0 mmφ) and then dried at 105° C. for 4 hours to obtain trehalose anhydrous crystals. These crystals were compressed into tablets at a compression pressure of 500 kg/cm^2, and the tablet hardnesses of the tablets were compared in the same manner as in Example 1.

[10] = Disintegration time according to Japanese Pharmacopoeia; format: physicochemical; details: listed as C
Method: The disintegration time of each of six molded products was measured by the use of ion-exchanged water according to the disintegration time measuring method prescribed in the 13th revised Japanese Pharmacopoeia, and the average of measured values was calculated.

[11] = Change in whiteness of excipient mixed with drug at 40° C. and 75% RH (reactivity); format: physicochemical; details: listed as C
Method: as §1
One gram of each of the trehaloses obtained in Example 1 and 1 g of isoniazid were mixed and then allowed to stand in an atmosphere of 40° C. and 75% RH, and the change in whiteness of the trehalose was observed. On the other hand, 1 g of each of the trehaloses obtained in Example 1 and 1 g of aminophyline were mixed and then allowed to stand in an atmosphere of 40° C. and 75% RH, and the change in whiteness of the trehalose was observed.
One gram of 100-mesh lactose (available from De Melkindustrie Veghel bv) or 1 g of Mannit S (available from Tohwa Kasei Co., Ltd.) and 1 g of aminophyline were mixed and then allowed to stand in an atmosphere of 40° C. and 75% RH, and the change in whiteness of the lactose or Mannit S was observed.
As a starting material. […]

[12] = phenacetin granules, binding solution 180 g
[13] = phenacetin granules, binding solution 240 g
[14] = phenacetin 50/excipient 30/corn starch 10/microcrystalline cellulose 10, binding solution 100 g
[15] = phenacetin granules, binding solution 120 g
[16] = phenacetin granules, binding solution 160 g
[17] = Example 10: as Example 9 but molded at 60 kg/cm^2

| Structure (SMILES) | Average particle size [1] | Apparent specific volume [2] | Average particle size of granules [3, 12] | Average particle size of granules [3, 13] | Tablet hardness at a compression pressure of 1000 kg/cm^2 ([4]; binding solution 180 g) | Tablet hardness at a compression pressure of 1000 kg/cm^2 ([4]; binding solution 240 g) | Whiteness [5] | Proportion of particles of 75 μm or more [6] | Angle of repose [8] | Average particle size of granules [3, 14] | Average particle size of granules [3, 15] | Average particle size of granules [3, 16] | Tablet hardness at a compression pressure of 1000 kg/cm^2 ([4]; binding solution 100 g) | also measured |
| --- | --- | --- | --- | --- | --- | --- | --- | --- | --- | --- | --- | --- | --- | --- |
| OC[C@@H](O)[C@@H](O)[C@H](O)[C@H](O)CO [Mannit P, reference compound] | 47 μm | 2.1 cm^3/g | 106 μm | 313 μm | 3.9 kgf | 3.1 kgf | 96% | 20% | 45 ° |  |  |  |  | Average particle size of granules ([3]; phenacetin granules, binding solution 200 g): 144 μm; Tablet hardness at a compression pressure of 1000 kg/cm^2 ([4]; binding solution 200 g): 3.0 kgf; Drug dissolution rate after 5 min. ([7]; binding solution 200, first liquid of Japanese Pharmacopoeia): 70% |
| OC[C@H]1O[C@H](O[C@H]2O[C@H](CO)[C@@H](O)[C@H](O)[C@H]2O)[C@H](O)[C@@H](O)[C@@H]1O [Trehalose J, trehalose] | 60 μm | 2.0 cm^3/g |  |  |  |  | 96% | 40% | 41 ° | 110 μm | 130 μm | 270 μm | 5.1 kgf | Average particle size of granules ([3]; phenacetin granules, binding solution 120 g, listed as J): 130 μm; Tablet hardness at a compression pressure of 1000 kg/cm^2 ([4]; binding solution 120 g, listed as J): 4.7 kgf; Tablet hardness at a compression pressure of 1000 kg/cm^2 ([4]; binding solution 160 g): 3.0 kgf; Drug dissolution rate after 5 min. ([7]; binding solution 120, first liquid of Japanese Pharmacopoeia): 80% |
| OC[C@H]1O[C@H](O[C@H]2O[C@H](CO)[C@@H](O)[C@H](O)[C@H]2O)[C@H](O)[C@@H](O)[C@@H]1O [Trehalose C, trehalose] |  |  |  |  |  |  |  |  |  |  |  |  |  | Average particle size ([1]; listed as C): 127 μm; Water content [9]: 9.8%; Apparent specific volume ([2]; listed as C): 1.9 cm^3/g; Disintegration time according to Japanese Pharmacopoeia ([10]; Example 8: molded product of trehalose only, 30 kg/cm^2): 10 s; Disintegration time according to Japanese Pharmacopoeia [10, 17]: 33 s; Disintegration time according to Japanese Pharmacopoeia ([10]; process of Example 9: 950 g excipient + 50 g phenylpropanolamine hydrochloride, 30 kg/cm^2): 10 s; Whiteness ([11]; 1 g excipient + 1 g aminophyline, 0 day): 98%; Whiteness ([11]; 1 g excipient + 1 g aminophyline, 40° C. and 75% RH, 1 month): 93%; Whiteness ([11]; 1 g excipient + 1 g isoniazid, 0 day): 97%; Whiteness ([11]; 1 g excipient + 1 g isoniazid, 40° C. and 75% RH, 1 month): 93%; Tablet hardness ([4]; Example 8: molded product of trehalose only, molded at 30 kg/cm^2, dried overnight at 40° C.): 6.0 kg; Tablet hardness [4, 17]: 8.6 kg; Tablet hardness ([4]; process of Example 9: 950 g excipient + 50 g phenylpropanolamine hydrochloride, molded at 30 kg/cm^2): 5.6 kg; Tablet hardness ([4]; tablets compressed at 500 kg/cm^2, 0 day (immediately after compression)): 2.3 kgf; Tablet hardness ([4]; tablets compressed at 500 kg/cm^2, 3 days at 40° C. and 75% RH): 2.3 kgf; Whiteness ([5]; listed as C): 95%; Proportion of particles of 75 μm or more ([6]; listed as C): 73%; Angle of repose ([8]; listed as C): 40 ° |
| OC[C@H]1O[C@@H](O[C@H]2[C@H](O)[C@@H](O)C(O)O[C@@H]2CO)[C@H](O)[C@@H](O)[C@H]1O (some centres unmarked) [200M lactose, lactose, reference compound] | 60 μm | 2.1 cm^3/g | 91 μm | 220 μm | 2.5 kgf | 3.7 kgf | 95% | 15% | 45 ° |  |  |  |  | Average particle size of granules ([3]; phenacetin granules, binding solution 220 g): 150 μm; Tablet hardness at a compression pressure of 1000 kg/cm^2 ([4]; binding solution 220 g): 3.0 kgf; Drug dissolution rate after 5 min. ([7]; binding solution 240, first liquid of Japanese Pharmacopoeia): 60% |
| OC[C@H]1O[C@H](O[C@H]2O[C@H](CO)[C@@H](O)[C@H](O)[C@H]2O)[C@H](O)[C@@H](O)[C@@H]1O [Trehalose K, trehalose] | 50 μm | 2.1 cm^3/g |  |  |  |  | 97% | 21% | 42 ° | 120 μm | 140 μm | 180 μm | 5.0 kgf | Average particle size of granules ([3]; phenacetin granules, binding solution 160 g, listed as K): 180 μm; Tablet hardness at a compression pressure of 1000 kg/cm^2 ([4]; binding solution 120 g): 4.5 kgf; Tablet hardness at a compression pressure of 1000 kg/cm^2 ([4]; binding solution 160 g, listed as K): 2.9 kgf; Drug dissolution rate after 5 min. ([7]; binding solution 160, first liquid of Japanese Pharmacopoeia): 80% |
